TGI and GI50 data for twelve compounds are collected here from PubChem BioAssay (NCI).

The structures appear in SMILES notation.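 Briefly, cells in 96-well plates were exposed to five compound concentrations for 48 h, and endpoints were estimated by linear interpolation. GI50 = concentration required for 50% inhibition of growth. TGI is the concentration that stops growth completely.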

For orientation: TGI means the concentration at which net growth stops. A low value points to more potent growth arrest. One may read the GI50 as the concentration at which growth is held to half of that of the control.

Assay in all cases: DTP human tumour cell line panel, 48 h
For assay [1], the system named is ACHN renal.
The subject of assay [2] is K-562 leukemia.
The subject of assay [3] is HCT-15 colon.
For assay [4], the system named is NCI/ADR-RES ovarian.
In assay [5] the test system is HL-60(TB) leukemia.
The subject of assay [6] is MDA-MB-435.
For assay [7], the system named is OVCAR-5 ovarian.
The test system of assay [8] is RPMI-8226 leukemia.
The test system of assay [9] is SF-268 CNS.
Assay [10] deals with HOP-92 NSCLC.

For the compound `CCOC(=O)/C=C/C1=C(Br)[C@@]2(C)CC[C@@H]3c4ccc(O)cc4CC[C@H]3[C@@H]2C1`, the total growth inhibition concentration (TGI) in assay [1] amounted to 29.1 µM; in [2], 24.9 µM; in assay [3], 24.4 µM; in assay [4] it was 27.9 µM; in assay [5], 34 µM; in assay [6] it was 28.8 µM. Besides, the TGI turned out to be 28.5 µM in assay [7], 6.6 µM in assay [8], 33 µM in assay [9] and 23.8 µM in assay [10].

`CN(CCc1ccccn1)c1ccc2c(c1)Cc1ccccc1-2`: the TGI was over 100 µM in [1]; over 100 µM in [2]; over 100 µM in [3]; over 100 µM in assay [4]; 59.3 µM in [5]; over 100 µM in assay [6]. The TGI in assay [7] is over 100 µM; in assay [8] it was 84.7 µM; in [9] it was over 100 µM; in assay [10], 31.9 µM.

Turning to `Clc1cccc(/C=c2\nc(-c3ccccc3)n3c2nc2ccccc23)c1`, the TGI in assay [2], in [3], in assay [4], in assay [5], in [6] and in assay [7] was over 100 µM in each case. For the same compound, the TGI in [8] is over 100 µM; in assay [9], over 100 µM; in [10], 48.4 µM.

Consider `Cc1c2ccccc2cc2cccc[n+]12`, for which the TGI in assay [1], in [2], in [3], in assay [4], in assay [5] and in assay [6] was over 100 µM throughout. In addition, the TGI in assay [7] was over 100 µM; in assay [8], over 100 µM; in assay [9] it was 40.4 µM.

Regarding `CCCCSCCC(N)P(=O)(O)O` (centres undefined), the TGI in assay [1], in [2], in assay [3], in [4], in [5] and in [6] was over 100 µM in each case. The TGI in assay [7], in assay [8] and in [10] was over 100 µM throughout.

Take `COc1ccc(-n2nc(C(=O)c3ccccc3)c3nn4c(=O)cc(-c5ccccc5)nc4nc32)cc1`: the GI50 was 45.9 µM in assay [1]; 40.5 µM in assay [2]; 43.4 µM in assay [3]; 34.5 µM in assay [4]; 29.6 µM in [5]; 51.9 µM in assay [6]. Besides, the values for the GI50 in assay [8], in assay [9] and in [10] were 40 µM, 39.1 µM and 37.4 µM, respectively. Further, the TGI in [1], in [2], in assay [3], in assay [4], in [5] and in assay [6] was over 100 µM in each case. In addition, the TGI in [8], in [9] and in assay [10] was over 100 µM each time.

In the case of `NC(N)=N/N=C/c1c(-c2cccs2)nc2n1CCS2`, the GI50 in assay [1] was 20.8 µM; in assay [2], 27.9 µM; in assay [3] it was 20.6 µM; in assay [6], 16.7 µM; in assay [8], 18.6 µM; in [9], 25.5 µM. Further, the total growth inhibition concentration (TGI) amounted to 40.9 µM in assay [1]; 71.8 µM in assay [2]; 60.1 µM in assay [3]; 30.7 µM in [6]; 39.9 µM in [8]; 53.3 µM in assay [9].

For `CN(C)c1ccc(/C=C2\C[C@H]3[C@@H]4CC=C5C[C@@H](O)CC[C@]5(C)[C@H]4CC[C@]3(C)[C@H]2O)cc1`, the TGI in assay [1] is 30.7 µM; in assay [2], over 100 µM; in assay [3], 39.7 µM; in [4], 43.7 µM; in assay [5], over 100 µM; in [7] it was 36.2 µM. Further, the TGI in assay [8] is over 100 µM; in assay [9], 34.8 µM.

As to `C#C[C@]1(O)[C@@H](CO)O[C@@H](n2ccc(=O)[nH]c2=O)[C@@H]1O`, the TGI was 0.602 µM in assay [1]; over 100 µM in assay [2]; over 100 µM in [5]; 3 µM in assay [6]; over 100 µM in [7]; over 100 µM in assay [8].

Regarding `OC1CCSc2ccccc21` (centres undefined), the TGI in assay [1], in assay [2], in assay [3], in [7], in [8] and in assay [9] was over 100 µM in each case.

With `CS(=O)(=O)Nc1cccc(-c2ccc3ncnc(Nc4cncc(Cl)c4)c3c2)c1`, the GI50 in assay [1] is 1.11 µM; in assay [2], 2.59 µM; in [4], 13.7 µM; in assay [5], 2.66 µM; in assay [6] it was 3.2 µM; in assay [7], 2.05 µM. Further, the GI50 in assay [8] was 2.14 µM; in assay [9], 2.26 µM; in [10] it was 1.83 µM. Besides, the TGI in assay [1] was over 100 µM; in [2] it was over 100 µM; in assay [4] it was over 100 µM; in [5], 9.2 µM; in assay [6] it was over 100 µM; in assay [7], over 100 µM. Besides, the TGI was 6.77 µM in assay [8], over 100 µM in assay [9] and 26.8 µM in assay [10].

In the case of `COc1cc2cc[n+](C)c(Cc3ccc(Oc4cc(Cc5c6cc(OC)c(OC)cc6cc[n+]5C)ccc4OC)cc3)c2cc1OC`, the TGI in [1], in assay [2], in assay [3], in assay [5], in assay [6] and in [7] was over 100 µM throughout. Besides, the TGI in [8], in [9] and in assay [10] was over 100 µM each time.
